# Measurements: patent publication US7927785B2, “Methods for in vitro expansion of hematopoietic stem cells” (The Board of Trustees of the University of Illinois, priority 2002, dated 2011)
# Legend:
# Assay type in all cases: cell-based
# [1] = system: adult human bone marrow CD34+ cells; assay: Colony-forming cell (CFC) assay in methylcellulose; conditions: after 5 days
# [2] = system: adult human bone marrow CD34+ cells; assay: Ex vivo expansion culture: cell counts and CD34+CD90+ cell numbers
# Procedure: (§1) To promote cell division of isolated CD34^+ cells, a stroma-free suspension culture was established as previously described (Bazil et al., 1995). Tissue culture dishes (35 mm; Costar, Corning, N.Y.) were seeded with 1×10^5 CD34^+cells/well in 2.5 mL Iscove modified Dulbecco medium (IMDM) (Biowhittaker, Walkersville, Md.) containing 30% FBS and a cocktail of cytokines specifically thought to promote exit from G0/G1 in primitive HSC populations which consisted of 100 ng/mL recombinant stem cell factor (SCF), 100 ng/mL FLT-3 ligand, 100 ng/mL thrombopoetin (TPO) and 50 ng/mL of interleukin (IL)-3, (all from Amgen Inc., Thousand Oaks, Calif.).
# (§2) Cells were maintained in the media and incubated at 37° C. in a 100%-humidified atmosphere containing 5% CO2 for 48 hours. After intial 16 hours of incubation cells were exposed to the demethylating agent, 5-aza2′deoxycitidine (5azaD) (Sigma Chemicals, St. Louis, Mo.) at a concentration of 10^−6M. After 48 hours, cells were washed by centrifugation and then equally distributed to new tissue culture dishes in 2.5 mL IMDM supplemented with 30% FBS containing cytokines known to promote terminal differentiation of HSC into multiple hematopoietic lineages. The cocktail of cytokines contained 100 ng/mL of SCF, 50 ng/ml of granulocyte colony-stimulating factor (G-CSF), 50 ng/mL of IL-3, 50 ng/ml of IL-6 and 5 units (U)/mL of recombinant erythropoietin (EPO) (Amgen Inc., Thousand Oaks, Calif.). Cells at this time point were exposed to Trichostatin (TSA) (Sigma Chemical., St. Louis, Mo.) at 5 ng/mL and the culture was continued for an additional 7 days. At the end of the culture period cells were counted for viability by the trypan blue exclusion method using an inverted microscope. 5-fluorouracil (5-FU) (Sigma Chemical., St. Louis, Mo.) was used at a concentration of 200 μg/ml and added at the 16 hour time point instead of 5azaD and the cultures carried on as described above with no addition of TSA.
# (§3) The phenotypic characteristics of the CD34^+ cells were analyzed using FACS. After 9 days of culture, expanded marrow CD34^+ cells were analyzed for primitive HSC phenotype, previously defined, by using flow activated-cell sorter (FACS) (Becton Dickinson (BD) FACS Calibur, San Jose, Calif.). Cells were stained with anti-human CD34^+ moAb conjugated either to fluorescein isothiocyanate (FITC) or phycoerythrin (PE) and another moAb including anti-CD38, anti-CD117, anti-CD90. To determine the lineage positive cells a panel of moab all conjugated to FITC (anti-CD2, anti-CD14, anti-CD15, anti-CD19 and anti-GlyA) (all antibodies were purchased from BD) were utilized. All anaylsis were paired with the corresponding matched isotype control of the specific moAb utilized. All staining and washes were performed in DPBS (Biowhittaker, Walkersville Md.) and 0.5% BSA (Sigma, Chemicals Co., St. Louis, Mo.). Immediately prior to FACS anaylsis, […] propidium iodide (PI) (Sigma, Chemicals Co., St. Louis, Mo.) was added for the exclusion of nonviable cells for phenotypic analysis. Using Cell-Quest software (BD), at least 10,000 live cells were acquired for each analysis.
# [3] = system: adult human bone marrow CD34+ cells; assay: Phenotypic analysis (FACS) of marrow CD34+ cells after ex vivo culture
# Procedure: as §1, §2, §3
# [4] = system: adult human bone marrow CD34+ cells; assay: Colony-forming cell (CFC) assay in methylcellulose
# Procedure: Colony-forming cells (CFC) were assayed under standard conditions in semisolid media as previously described (Brandt et al., Blood 94:106-113, 1999). Briefly 1×10^3 primary CD34^+ cells or unfractionated cultured cells exposed to different conditions used following 9 days of culture were plated in duplicate cultures containing 1 ml IMDM with 1.1% methylcellulose, 30% FBS, 5×10^−5 M 2-mercaptoethanol (Methocult, Stem Cell Technologies, Vancouver, BC, Canada), and a cocktail of growth factors including 100 ng/ml of SCF, 5 U/mL of EPO, 50 ng/mL of IL-3, 50 ng/mL of IL-6 and 50 ng/mL of G-CSF (Amgen Inc., Thousand Oaks, Calif.). The cells were plated into 35 mm tissue-culture dishes (Costar), and after 14 days of incubation at 37° C. in a 100%-humidified atmosphere containing 5% CO2, the colonies were scored with an inverted microscope following standard criteria (Breems et al., Leukemia, 8:1095-1104, 1994).
# [5] = 9 days of culture, single agent
# [6] = 9 days with cytokines, mean of 3 ± SEM
# [7] = 9 days of culture, single agent, % of total cells
# [8] = colonies/plate, cells after 9 days with cytokines, mean of 2 ± SEM
compound,measurement,setting,value
"O=c1[nH]cc(F)c(=O)[nH]1 [5-FU, 5-fluorouracil]",assayable hematopoetic progenitor cells,[1],no assayable hematopoetic progenitor cells
same,% CD34+ of all cells,[2]; [5],26%
same,% CD34+ thy-1+ cells,[2]; [5],1%
same,Absolute CD34+ thy-1+ cells ×10^5,[2]; [5],0.0002 ×10^5
same,Absolute CD34 counts ×10^5,[2]; [5],0.0065 ×10^5
same,Fold changes from the original cells,"[2]; 9 days of culture, single agent, CD34+CD90+ cells",0.001 fold
same,Total counts ×10^5,"[2]; 9 days of culture, single agent, start 1×10^5 CD34+ cells/well",0.025 ×10^5
same,Absolute CD34+ Number (×10^4),[2]; [6],0.1 ± 0.0 ×10^4
same,Absolute CD34+CD90+ Numbers (×10^4),[2]; [6],0.0 ×10^4
same,Total Mononuclear Cell Number (×10^4),[2]; [6],0.3 ± 0.0 ×10^4
same,CD34+CD90+ cells observed,[2]; by day 9,no CD34^+CD90^+ cells were observed
same,Fold Expansion of CD34+CD90+,"[2]; compared to the primary cell numbers, mean of 3 ± SEM",0.0 fold
same,absolute number of CD34+CD90+ cells in the culture,"[2]; day 9, from 22,000 at start",700
same,CD34+ CD90+ %,[3]; [7],1.2%
same,CD34+ CKit lo %,[3]; [7],4%
same,CD34+ Lin− %,[3]; [7],27%
same,CD34+CD38− %,[3]; [7],27%
same,Total CD34+ %,[3]; [7],27%
same,% of CD34+ cells that were CD90+,[3]; day 9,10%
same,% of cells that were CD34+,[3]; day 9,20%
same,assayable hematopoietic progenitor cells,"[4]; 9 days with cytokines, compared with primary cells",no assayable hematopoietic progenitor cells
same,Total Number Colonies/plate,"[4]; cells after 9 days with cytokines, mean of 2 ± SEM",0
same,BFU-E,[4]; [8],0
same,CFU-GM,[4]; [8],0
same,CFU-Mix,[4]; [8],0
same,Plating Efficiencies,[4]; total number of hematopoietic colonies/total cells plated × 100,0
